In assay [1] the test system is antigen presentation by LNC to T cell hybridoma 1C5.1. The assay can be described thus: Chloroquine treatment of irradiated LNC before T hybridoma activation. It is filed as cell-based. To be noted: C3H mice primed with 14 nmol/mouse HEL in CFA, 10^6 LNC/well; chloroquine 1-100 µM, hybridoma 1C5.1 (Fig. 3).
The test system of assay [2] is I-Ak molecules. To be noted: cited from earlier work.
Assay [3] deals with I-Ek molecules. To be noted: cited from earlier work.
In assay [4] the test system is I-Ed molecules. To be noted: cited from earlier work.
Assay [5] deals with T cell response. To be noted: cited from earlier work.
Assay [6] concerns T cell hybridoma 1C5.1 (I-Ak/HEL 46-61). Format: cell-based, mouse. To be noted: read-out: Responsiveness: amount of HEL or peptide inducing 50% of the maximal response; hybridoma 1C5.1, restriction Ak; LK-35.2 cells as APC; mean of three to four experiments.
Assay [7] relates to T cell hybridoma 3A9 (I-Ak/HEL 46-61). It is filed as cell-based, mouse. To be noted: read-out: Responsiveness: amount of HEL or peptide inducing 50% of the maximal response; hybridoma 3A9, restriction Ak; LK-35.2 cells as APC; mean of three to four experiments.
Assay [8] deals with T cell hybridoma 2D4.1 (I-Ak/HEL 112-129). It is filed as cell-based, mouse. To be noted: read-out: Responsiveness: amount of HEL or peptide inducing 50% of the maximal response; hybridoma 2D4.1, restriction Ak; LK-35.2 cells as APC; mean of three to four experiments.
Assay [9] concerns T cell hybridoma 1H11.3 (I-Ed/HEL 108-116). It is filed as cell-based, mouse. To be noted: read-out: Responsiveness: amount of HEL or peptide inducing 50% of the maximal response; hybridoma 1H11.3, restriction Ed; LK-35.2 cells as APC; mean of three to four experiments.
Assay [10] relates to T cell hybridoma 2G7.1 (I-Ek/HEL 1-18). It is filed as cell-based, mouse. To be noted: read-out: Responsiveness: amount of HEL or peptide inducing 50% of the maximal response; hybridoma 2G7.1, restriction Ek; LK-35.2 cells as APC; mean of three to four experiments.
The test system of assay [11] is T cell hybridoma 1C5.1 (I-Ak/HEL 46-61). It is filed as in vivo, C3H mice. To be noted: LNC from HEL-primed mice (not shown).
For assay [12], the system named is T cell hybridoma 3A9 (I-Ak/HEL 46-61). Format: in vivo, C3H and DBA/2 mice. To be noted: C3H (H-2k) mice, 7 nmol/mouse HEL-CFA, LNC day 8, no antigen added (Fig. 1).
Assay [13] has as its system T cell hybridoma 1H11.3 (I-Ed/HEL 108-116). It is filed as in vivo, C3H and DBA/2 mice. To be noted: DBA/2 (H-2d) mice, 7 nmol/mouse HEL-CFA, LNC day 8, no antigen added (Fig. 1).

Consider `CCN(CC)CCCC(C)Nc1ccnc2cc(Cl)ccc12` (centres unmarked) [chloroquine], for which the “Effect on antigen presentation by LNC from HEL-primed mice” value in assay [1] is “failsto interfere”.

Take CNDGRTPGSRNLCN [HEL 64-77]: the “Binding to I-Ak” value in [2] was “does not bind”.

As to DRGDQSTDYGIFQINSR [ML 46-62], in assay [2], the “Binding to I-Ak molecules” value is recorded as “binds strongly”. Also, the “Binding to I-Ek molecules” value in assay [3] is “failsto bind”. Besides, in assay [4], the “Binding to I-Ed molecules” value is “failsto bind”. Moreover, the Immunogenicity in mice entry in assay [5] is “nonimmunogenic”.

In the case of hen egg white lysozyme [HEL], the EC50 came out at 0.3 µM in assay [6]; 0.02 µM in assay [7]; 0.3 µM in assay [8]; 0.5 µM in [9]; 0.3 µM in assay [10]. Further, the “Time after immunization of maximal antigen-presenting activity in LNC” value in assay [11] was 8 days. The “IL-2 production by 3A9 induced by LNC from primed mice” value in [12] is on record as “induce”. The “IL-2 production by 1H11.3 induced by LNC from primed mice” value in assay [13] is “induce”.

Values taken from PMC2119205 (The Journal of Experimental Medicine, 1992).
